The results in this text go back to patent US4552895A, “Furo[3,2-b]furan-2-(3H)-ones” (Eli Lilly and Company, priority 1983, dated 1985).

One assay has as its system angiogenesis factor. As to the kind of experiment: Tumor angiogenesis inhibition in vivo: serpentine vessels induced by lysosomal-mitochondrial preparation from 3683 Morris hepatoma in mice. The arrangement: species or system mice (SPF/ND4 female). The following applies: Mus musculus, ip, mice sacrificed after 24 hours, average number of serpentine vessels vs control. Here is the method: Lysosomal-mitochondrial pellets containing angiogenesis factor are prepared from 3683 Morris hepatoma. The pellet is diluted with 7-8 ml. of 15% ficoll. At this dilution, 8-10 serpentine vessels are usually produced per 0.2 cc. injection as described below for the control group.
Next, 15 SPF/ND4 female mice weighing 20-22 g. are shaved on the left side and then divided into three groupss of five each. One group (drug group) is injected subcutaneously and laterally with 0.2 cc. of the lysosomal-mitochondrial preparation diluted with 15% ficoll. This group of mice is then dosed individually by the intraperitoneal route with 0.5 cc. of a solution or suspension in a standard vehicle containing the compound under test, usually at an initial dose level of 300 mg./kg. If this dose level is toxic, two-fold dilutions are made until all mice survive a single dose. The second group of mice (control group) is injected subcutaneously and laterally with 0.2 cc. of the lysosomal-mitochondrial suspension diluted with ficoll and dosed intraperitoneally with 0.5 cc. of the vehicle alone. The third group of mice (negative control) is injected with the ficoll solution only (without the lysosomal-mitochondrial pellet) without treatment with compound or vehicle. The mice are sacrificed after 24 hours. Each mouse is placed on its side on a dissecting board with the shaved side up. Starting at the flank, the skin is cut straight to the back of the animal. A similar cut is made behind the front leg. The skin is then cut along the back making a flap of about one inch by two inches. The skin is carefully separated from the connective tissue by using forceps and a scalpel. The skin flap is then laid back exposing the lysosomal-mitochondrial implant which is attached to the skin. The skin flap is gently flattened out and with the use of a binocular dissecting scope, serpentine vessels are observed around the lysosomal-mitochondrial implant and their number counted. All observations of the number of serpentine vessels are made at the same power of the microscope (1×). The average number of serpentine vessels for each group is calculated. The percent inhibition is then calculated according to the following equation. [formula] where sv=averge number of serpentine vessels.
If the negative control group described above has any serpentine vessels, the test is invalid due to contamination of the ficoll solution.

For assay [1], the system named is Collagen-Induced Arthritis. As to the kind of experiment: Collagen-induced arthritis assay (type II collagen, hindpaw volume) in rats. In kind it is in vivo, inbred Lewis male rats. The following applies: oral gavage 5 days per week from day 1 to day 28 or 30. Here is the method:
This test method is a collagen arthritis assay carried out as follows.
Type II collagen is isolated from bovine articular cartilage by the method of Strawich and Nimni [Biochemistry, 10, 3905 (1971)]. The collagen is dissolved in 0.1M acetic acid and stored at -20° C. Type II collagen solution is diluted to 2 mg./ml. concentration and emulsified thoroughly with an equal volume of incomplete Freund's adjuvant (ICFA). The emulsion containing approximately 0.5 mg. of collagen is injected intradermally on day 0 to groups of 6 inbred Lewis male rats (Charles River Breeders; 170-200 g.) at various sites in the dorsal area. The hindpaw volumes of each rat are measured and recorded three times a week throughout the test period to assess the inflammatory reaction. The test group animals receive compounds under test as suspensions in carboxymethylcellulose vehicle, by oral gavage, 5 days per week (Monday-Friday), beginning on day 1. Control animals receive vehicle without a test compound. At the end of the test (day 28 or 30), the blood of these animals is drawn by cardiac puncture and the serum anti-type II collagen antibody levels are estimated by passive hemagglutination technique, using glutaraldehyde treated sheep red cells, to which type II collagen is conjugated [Avrameas et al., Immunochemistry, 6, 67 (1969); Andriopoulos et al., Arth. Rheum., 19, 613 (1976)]. The cellular response or delayed-type hypersensitivity response to type II collagen is measured by the radiometric ear index assay [Kostiala, Immunology, 33, 561 (1977)]. In certain experiments, the bone damage occurring because of immunization with type II collagen and the effects of drugs are determined from the radiographs of the hindpaws of two or three representative animals from each group. Injections of ICFA without collagen II were employed to some rats as a negative control; these rats received only […] vehicle during the test.
The % inhibition is calculated according to the following formula: [formula] where Vt is the hindpaw volume of a compound-treated animal (test group), Vc is the hindpaw volume of a non-compound-treated animal ([…] vehicle only-the control group), the Vv is the hindpaw volume of a vehicle ([…]) treated animal which received ICFA with no collagen II (negative control group).

Usually inhibition in vivo stands for the share of the control response that was lost under treatment. The low end stands for a weak effect, the high end for a strong effect.

In the assay on angiogenesis factor, `O=C1OC2C(O)COC2(O)C1(O)Cc1ccc(F)cc1` (stereo not drawn) [Example 1, [3R-(3aα,6α,6aα)]-tetrahydro-3,3a,6-trihydroxy-3-[(4-fluorophenyl)methyl]furo[3,2-b]furan-2(3H)-one] showed an inhibition in vivo at 25 mg/kg of 62%. Further, the “Inhibition of Collagen-Induced Arthritis, % inhibition” value (“Inhibition … % inhibition” for short) in assay [1] (25 mg./kg.) amounted to 94%.

For the compound `O=C1OC2C(O)COC2(O)C1(O)Cc1cccc(Br)c1` (stereo not drawn) [Example 2], the inhibition in vivo at 25 mg/kg in the assay with angiogenesis factor amounted to 45%.

In the assay on angiogenesis factor, `O=C1OC2C(O)COC2(O)C1(O)Cc1cccc(Cl)c1` (stereo not drawn) [Example 3] showed an inhibition in vivo at 25 mg/kg of 55%. Besides, in assay [1] (15 mg./kg.), the “Inhibition … % inhibition” value was 100%.

In the case of `O=C1OC2C(O)COC2(O)C1(O)Cc1ccccc1Cl` (stereo not drawn) [Example 4], the inhibition in vivo at 25 mg/kg with angiogenesis factor stood at 38%.

In the assay with angiogenesis factor, `O=C1OC2C(O)COC2(O)C1(O)Cc1ccc(Cl)cc1` (stereo not drawn) [Example 5] displayed an inhibition in vivo at 25 mg/kg of 52%. In assay [1] (15 mg./kg.), the “Inhibition … % inhibition” value is listed as 81%.

In turn, `O=C1OC2C(O)COC2(O)C1(O)Cc1ccccc1F` (stereo not drawn) [Example 6] displayed an inhibition in vivo at 25 mg/kg with angiogenesis factor of 33%.

For `O=C1OC2C(O)COC2(O)C1(O)Cc1cccc(F)c1` (stereo not drawn) [Example 7], the inhibition in vivo at 25 mg/kg in the assay with angiogenesis factor amounted to 57%. Moreover, the “Inhibition … % inhibition” value in assay [1] (25 mg./kg.) amounted to 100%.

Take `O=C1OC2C(O)COC2(O)C1(O)Cc1ccc(C(F)(F)F)cc1` (stereo not drawn) [Example 8]: the inhibition in vivo at 25 mg/kg in the assay with angiogenesis factor worked out at 55%.

`Cc1cccc(CC2(O)C(=O)OC3C(O)COC32O)c1` (stereo not drawn) [Example 9] showed an inhibition in vivo at 25 mg/kg in the assay with angiogenesis factor of 48%.

`Cc1ccccc1CC1(O)C(=O)OC2C(O)COC21O` (stereo not drawn) [Example 10] came in with an inhibition in vivo at 25 mg/kg in the assay on angiogenesis factor of 48%.

In the case of `Cc1ccc(CC2(O)C(=O)OC3C(O)COC32O)cc1` (stereo not drawn) [Example 11], 25 mg/kg produced 62% inhibition in vivo with angiogenesis factor. For the same compound, the “Inhibition … % inhibition” value in assay [1] (15 mg./kg.) was determined as 94%.

In the assay with angiogenesis factor, `Cc1ccc(C)c(CC2(O)C(=O)OC3C(O)COC32O)c1` (stereo not drawn) [Example 12] came in with an inhibition in vivo at 25 mg/kg of 58%. For the same compound, the “Inhibition … % inhibition” value in assay [1] (25 mg./kg.) was 23%.
